From US7208469B2, “Therapeutic method” (Auckland UniServices Limited, priority 1997, dated 2007) come the findings set out here.

Positions of bridges follow the written chain, without caps; N, C: chain ends. No end group written: not given here.

Experiment [1] relates to chondrocytes. As to the kind of experiment: Chondrocyte monolayer cell cultures: proliferation (cell counts and [3H]-thymidine incorporation). Conditions: 24 hours. Type of experiment: cell-based, dog. The procedure:
Fresh cartilage samples were collected from the tibial plateaus and femoral condyles of mature, healthy crossbred dogs (2–4 years; 20–25 kg). The chondrocytes were isolated as previously described (Connective Tissue Research 1988; 18:205–222). Briefly, the chondrocytes were obtained by pronase and collagenase digestion of the cartilage, then the cells were centrifuged, washed and resuspended in media before being cultured in 75 cm^2 tissue culture flasks. The cells were incubated under 5% CO2 and 95% air at 37° C. Confluence was reached by 7–10 days, at which time the cells were subcultured. After trypsinization, the cells are rinsed and resuspended in fresh medium, then seeded at 5×10^4 cells/ml in 24-well plates (0.5 ml cell suspension per well, ie. 1.4×10^4 cells/cm^2). Proliferation studies (cell counts and thymidine incorporation) were performed. Subconfluent population were changed to serum-free medium with 0.1% bovine serum albumin plus the experimental compounds. Cell numbers were analysed at 24 hours after addition of the peptide or vehicle. The cell numbers were determined using a haemocytometer chamber. Results were expressed per well. [^3H]-thymidine incorporation was assessed by pulsing the cells with [^3H]-thymidine (1 uCi/well) two hours before the end of the experimental incubation. The experiment was terminated at 24 hours by washing the cells in media containing cold thymidine followed by the addition of 10% tricholoroacetic acid. The precipitate was washed twice with ethanol:ether (3:1) and the wells desiccated at room temperature. The residue was redissolved in 2 M KOH at 55° C. for 30 mins, neutralised with 1 M HCl, and an aliquot counted for radioactivity. Results were expressed as dpm per well. For both cell counts and thymidine incorporation, each experiment was performed at least 4 different times using experimental groups consisting of at least 6 wells.

The subject of experiment [2] is tibiae of normal adult male mice. The experiment is described as follows: In vivo study: daily subcutaneous injection in mice, tibial growth plate width and tibial length. To be noted: male Swiss mice, 300 ug/kg/injection s.c., 5 days/week for 4 weeks; for tibial (epiphyseal) growth plate width: mean±sem, controls 0.081-0.094 mm. The procedure: Two groups of 20 sexually mature male Swiss mice aged between 40 and 50 days and weighing 25–32 g, were given daily subcutaneous injections (50 ul) in the loose skin at the nape of the neck for 5 days/week over 4 consecutive weeks. The treated group was injected with peptide at a dose of 300 ug/kg/injection and the control group was injected with vehicle (water). Animals were housed in a room maintained at 20° C. on 12-hour light/dark cycles. They were fed diet 86 rodent pellets (New Zealand Stockfeed Ltd) ad libitum throughout the experiment. Each animal's weight was recorded at the beginning and end of the experiment. One day after the last injection, animals were sacrificed by cervical dislocation. They study had the approval of the local institutional review board.
The tibiae were dissected free of adherent tissue. Tibial lengths were recorded by measuring the distance between the proximal epiphysis and the distal tibio-fibular junction using an electronic micrometer (Digimatic Calipers, Mitutoyo, Japan). Bones were placed in 10% phosphate-buffered formalin for 24 hours and then dehydrated in a graded series of ethanol solutions and embedded, undecalcified, in methylmethacrylate resin. Tibiae were sectioned longitudinally through the frontal plane and calvariae were cut cross-sectionally at the base of the parietal bone. All sections were 4 um think and were cut on a Leitz microtome using a tungsten-carbide knife (Microknife Sharpening, Utah, USA). Sections were mounted on gelatin-coated slides and air-dried. They were stained with Goldner's tri-chrome and examined using an Olympus BX 50 microscope (Olympus Optical Co Ltd, Tokyo, Japan) which was attached to an Osteomeasure Image Analyzer (Osteometrics Inc. Atlanta, Ga.).
Tibial histomorphometric analyses were made from three adjacent sections one third of the way through the anterior/posterior depth of the proximal tibiae. Epiphyseal growth plate thickness was measured at three sites evenly spaced along its length. All measurements were made by one operator who was blinded to the treatment group of each bone.

Experiment [3] concerns chondrocytes. The experiment is described as follows: Chondrocytes 3-dimensional cell cultures in alginate beads: proliferation (cell counts and 3H-thymidine incorporation). It is filed as cell-based, dog. The procedure: Alginate head cultures were established as described by Guo, et al. Culture and growth characteristics of chondrocytes encapsulated in alginated beads. Connective Tissue Research 19:277–297 (1989). Briefly the cells were suspended in a solution of 1.25% (wt/vol) alginate in HEPES (20 mM HEPES buffer pH neutral) at a density of 2×10^6 cells/ml> The suspension of chondrocytes were slowly extruded through a 22-gauge needle in a dropwise manner into 40 ml of 0.1 M CaCl2 solution. After instantaneous gelation, the beads were allowed to further polymerise in CaCl2 solution (10 mins, room temperature). The beads were washed sequentially, twice in 0.15 M NaCl and twice in Dulbecco's modified Eagle's medium (DME). After the washing procedure, the beads were placed into 24-well culture plates (10 beads/well) and fed with 1 ml 10% fetal calf serum (FCS) SMW with 5μg/ml ascorbic acid. The cultures were maintained at 37° C. in a humidified atmosphere of 5% CO2 in air. The medium was changed every second day. […] Cell numbers were analysed at day 8 by exposing alginate beads to 50 mM ethylenediaminetetraacetic acid (EDTA) for approximately 10 minutes at 37° C. […] Tritiated-thymidine incorporation (^3H-thymidine) was assessed by pulsing the beads with ^3H-thymidine (1μCi/well) 48 hours before the end of experimental incubation. […] Pellets were resuspended and counted for radioactivity.

Consider “Adrenomedullin (YRQSMNNFQGLRSFGCRFGTCTVQKLAHQIYQFTDKDKDNVAPRSKISPQGY-NH2; disulfide 16-21 (inferred); ends not checked; UniProt P35318 95-146, looked up) [52-amino acid peptide first described by Kitamura et al; synthesized by solid-phase procedures]”, for which the cell numbers in experiment [1] (peptide 10^−9M, control 1.79±0.07, p<0.01) is 2.27±0.12 ×10^4.

As to “Adrenomedullin-(27–52) (AHQIYQFTDKDKDNVAPRSKISPQGY; listed as Homo sapiens)”, the “tibial (epiphyseal) growth plate width” value in experiment [2] was 0.11 mm.

With “Amylin (KCNTATCATQRLANFLVHSSNNFGAILSSTNVGSNTY; listed as Rattus norvegicus) [rat amylin sourced from Bachem California]”, the “thymidine incorporation (DNA synthesis)” value was determined as 2584±229 dpm in experiment [3] (day 8, peptide 10^−10M, control 1135±85, p<0.001) and 25937±1203 dpm in experiment [1] (per well, amylin concentration not given, control 20725±997). In addition, the cell numbers in experiment [3] (day 8, per well, peptide 10^−10M, control 5.58±0.16, p<0.03) is 6.07±0.05 ×10^4; in experiment [1] (per well, mean±sem, amylin concentration not given, control 4.12±0.23, p=0.01), 5.11±0.21 ×10^4. Further, in experiment [2], the “tibial (epiphyseal) growth plate width” value is reported as 0.108±0.003 mm. Further, the “total length of the tibiae” value in experiment [2] (control 11.31±0.07) was determined as 11.67±0.09 mm.

Turning to “Amylin-(1–8) (KCNTATCA-NH2; disulfide 2-7 (inferred); listed as Rattus norvegicus)”, the cell numbers in experiment [1] (peptide 10–8M, control 3.23±0.11, p=0.02) is recorded as 3.63±0.09 ×10^4. The “thymidine incorporation (DNA synthesis)” value in experiment [1] (peptide 10–8M, control 26859±423, p=0.02) came to 28932±628 dpm. Besides, in experiment [2], the “tibial (epiphyseal) growth plate width” value came out at 0.111 mm.
